According to patent publication US11299500B2, “Crystalline form of lorlatinib free base hydrate” (Pfizer Inc., priority 2017, dated 2022):

Assays:
[1] = Physical stability in aqueous-based formulations; format: physicochemical; settings: relative to anhydrous free base (Form 7) and acetic acid solvate (Form 3); e.g., topical formulations
[2] = Water sorption/desorption study by DVS; format: physicochemical
Experimental: A DVS method was employed to study the sorption/desorption behavior of Form 24.
Method: The method involved a standard sorption run from 0% RH to 90% RH, employing humidity rise at steps of 10% RH at 20° C., followed by a de-sorption run down to 0% RH and a second sorption/desorption cycle from 0% RH to 90% RH in 10% step change of RH at 20° C.

[3] = tested on: c-ros oncogene 1 (ROS1) receptor tyrosine kinase; settings: wild type and resistance mutant forms, including ROS1 G2032R; cited from earlier work
[4] = tested on: ALK-positive NSCLC xenograft models and intracranial ALK-positive tumor models; settings: cited from earlier work
[5] = tested on: anaplastic lymphoma kinase (ALK); settings: wild type and resistance mutant forms, including ALK G1202R; cited from earlier work
[6] = targeted relative humidity 0% RH, 20° C.
[7] = targeted relative humidity 10% RH, 20° C.
[8] = targeted relative humidity 20% RH, 20° C.
[9] = targeted relative humidity 30% RH, 20° C.
[10] = targeted relative humidity 40% RH, 20° C.
[11] = targeted relative humidity 50% RH, 20° C.
[12] = targeted relative humidity 60% RH, 20° C.
[13] = targeted relative humidity 70% RH, 20° C.
[14] = targeted relative humidity 80% RH, 20° C.
[15] = targeted relative humidity 90% RH, 20° C.

## C[C@H]1Oc2cc(cnc2N)-c2c(nn(C)c2C#N)CN(C)C(=O)c2ccc(F)cc21 [Form 24, (10R)-7-amino-12-fluoro-2,10,16-trimethyl-15-oxo-10,15,16,17-tetrahydro-2H-8,4-(metheno)pyrazolo[4,3-h][2,5,11]benzoxadiazacyclotetra-decine-3-carbonitrile (lorlatinib) Free Base Hydrate (Form 24)]
[1]
  physical stability in aqueous-based formulations: improved physical stability
[2]; 0-90% RH, 20° C.
  hysteresis of de-sorption isotherms with respect to sorption isotherm: very little hysteresis
[2]; [6]
  % Water First Cycle: 0.00%
  % Water Second Cycle: 0.00%
[2]; [7]
  % Water First Cycle: 0.06%
  % Water Second Cycle: 0.06%
[2]; [8]
  % Water First Cycle: 0.13%
  % Water Second Cycle: 0.13%
[2]; [9]
  % Water First Cycle: 0.19%
  % Water Second Cycle: 0.20%
[2]; [10]
  % Water First Cycle: 0.27%
  % Water Second Cycle: 0.27%
[2]; [11]
  % Water First Cycle: 0.34%
  % Water Second Cycle: 0.35%
[2]; [12]
  % Water First Cycle: 0.43%
  % Water Second Cycle: 0.44%
[2]; [13]
  % Water First Cycle: 0.52%
  % Water Second Cycle: 0.54%
[2]; [14]
  % Water First Cycle: 0.64%
  % Water Second Cycle: 0.65%
[2]; [15]
  % Water First Cycle: 0.78%
  % Water Second Cycle: 0.78%
[2]; water level change between dry and wet state
  change of mass between a dry and wet state: below 1%

## C[C@H]1Oc2cc(cnc2N)-c2c(nn(C)c2C#N)CN(C)C(=O)c2ccc(F)cc21 [Lorlatinib, (10R)-7-amino-12-fluoro-2,10,16-trimethyl-15-oxo-10,15,16,17-tetra-hydro-2H-8,4-(metheno)pyrazolo[4,3-h][2,5,11]benzoxadiazacyclotetradecine-3-carbonitrile]
[3]
  potency against ROS1: nanomolar potency
[4]
  antitumor activity: demonstrated antitumor activity
[5]
  potency against ALK: nanomolar potency
